In PMC6615261, “Repurposing Azithromycin and Rifampicin Against Gram-Negative Pathogens by Combination With Peptidomimetics” (Frontiers in Cellular and Infection Microbiology, 2019):

Key:
K. pneumoniae ST258 = assay: Potentiation of additional antibiotics (COMPAN1F plates), MIC; assay type: cell-based, Klebsiella pneumoniae; conditions: for MIC of antibiotic in presence of peptidomimetic 1: + 1 μM peptidomimetic 1; for MIC of antibiotic in presence of peptidomimetic 15: + 1 μM peptidomimetic 15; for MIC of antibiotic in presence of peptidomimetic 26: + 1 μM peptidomimetic 26; for MIC: Klebsiella pneumoniae, read-out: MIC of antibiotic alone; for MIC / MIC of antibiotic alone: no peptidomimetic
Description: (§1) Minimal inhibitory concentrations (MICs) of peptidomimetics, antibiotics and their combinations were determined by broth microdilution according to the Clinical Laboratory Standards Institute performance standards (Clinical and Laboratory Standards Institute, [2013]). […] Since rifampicin and azithromycin mainly are used to treat infections with Gram-positive pathogens only CLSI clinical breakpoints were available for such bacteria. […] Potentiation of additional antibiotics by peptidomimetics was determined by using commercial 96-well plates containing varied concentrations of standard antibiotics (COMPAN1F; Trek Diagnostic Systems Inc.). The peptidomimetics were added immediately prior to inoculation with pathogen, and then MICs were determined as above. The MICs of peptidomimetic/antibiotic combinations were determined according to the method above, and the concentration ratios were selected based upon checkerboard results with 2:1 and 1:4 ratio of peptidomimetic with rifampicin or azithromycin, respectively. Minimal bactericidal concentrations (MBCs) were determined by using growth-curve assay plates. MIC plates were prepared as above, and then the plates were incubated at 37°C with continuous shaking. Growth was recorded at 10 min intervals as optical density (OD) at 600 nm during 24 h. At 24 h, for wells without growth, a sample was diluted 10-fold in sterile saline (0.9% sodium chloride) and plated onto MHA, following CLSI guidelines (Clinical and Laboratory Standards Institute, [1999]).

E. coli ST131 = assay: as above; assay type: cell-based, Escherichia coli; conditions: for MIC of antibiotic in presence of peptidomimetic 26: + 0.25 μM peptidomimetic 26; for MIC of antibiotic in presence of peptidomimetic 1: + 0.5 μM peptidomimetic 1; for MIC of antibiotic in presence of peptidomimetic 15: + 0.5 μM peptidomimetic 15; for MIC: Escherichia coli, read-out: MIC of antibiotic alone; for MIC / MIC of antibiotic alone: no peptidomimetic
Description: as §1

| Compound | MIC of antibiotic in presence of peptidomimetic 1 (K. pneumoniae ST258) [µg/mL] | MIC of antibiotic in presence of peptidomimetic 15 (K. pneumoniae ST258) [µg/mL] | MIC of antibiotic in presence of peptidomimetic 26 (K. pneumoniae ST258) [µg/mL] | MIC (K. pneumoniae ST258) [µg/mL] | MIC of antibiotic in presence of peptidomimetic 26 (E. coli ST131) | MIC of antibiotic in presence of peptidomimetic 1 (E. coli ST131) [µg/mL] | MIC of antibiotic in presence of peptidomimetic 15 (E. coli ST131) [µg/mL] | MIC (E. coli ST131) [µg/mL] | MIC of antibiotic alone (K. pneumoniae ST258) [µg/mL] | MIC of antibiotic alone (E. coli ST131) [µg/mL] |
| --- | --- | --- | --- | --- | --- | --- | --- | --- | --- | --- |
| NCC[C@H](O)C(=O)N[C@@H]1C[C@H](N)[C@@H](O[C@H]2O[C@H](CN)[C@@H](O)[C@H](O)[C@H]2O)[C@H](O)[C@H]1O[C@H]1O[C@H](CO)[C@@H](O)[C@H](N)[C@H]1O [Amikacin] | 32 | 32 | 16 | 32 | 8 µg/mL | >32 | 8 | 16 |  |  |
| CC1(C)S[C@@H]2[C@H](NC(=O)[C@H](N)c3ccccc3)C(=O)N2[C@H]1C(=O)O [Ampicillin] | >16 | >16 | >16 | > 16 | >16 µg/mL | >16 | >16 | > 16 |  |  |
| Cc1nnc(SCC2=C(C(=O)O)N3C(=O)[C@@H](NC(=O)Cn4cnnn4)[C@H]3SC2)s1 [Cefazolin] | >16 | >16 | >16 | > 16 | >16 µg/mL | >16 | >16 | > 16 |  |  |
| CO/N=C(/C(=O)N[C@@H]1C(=O)N2C(C(=O)O)=C([C@@H]3CCCO3)CS[C@H]12)c1csc(N)n1 [Cefovecin] | >8 | >8 | >8 |  | >8 µg/mL | >8 | >8 |  | >8 | >8 |
| CO[C@@]1(NC(=O)Cc2cccs2)C(=O)N2C(C(=O)O)=C(COC(N)=O)CS[C@@H]21 [Cefoxitin] | >16 | >16 | >16 | > 16 |  | >16 | 4 | 8 |  |  |
| COCC1=C(C(=O)O)N2C(=O)[C@@H](NC(=O)/C(=N\OC)c3csc(N)n3)[C@H]2SC1 [Cefpodoxime] | >16 | >16 | >16 | > 16 | >16 µg/mL | >16 | >16 | > 16 |  |  |
| CO/N=C(\C(=O)N[C@@H]1C(=O)N2C(C(=O)O)=C(CSC(=O)c3ccco3)CS[C@H]12)c1csc(N)n1 [Ceftiofur] | >4 | >4 | >4 | > 4 |  | >4 | >4 | > 4 |  |  |
| O=C(N[C@H](CO)[C@H](O)c1ccc([N+](=O)[O-])cc1)C(Cl)Cl [Chloramphenicol] | >16 | >16 | >16 | > 16 | ≤4 µg/mL | ≤4 | ≤4 | ≤ 4 |  |  |
| C[C@H]1c2cccc(O)c2C(=O)C2=C(O)[C@]3(O)C(=O)C(C(N)=O)=C(O)[C@@H](N(C)C)[C@@H]3[C@@H](O)[C@@H]21 [Doxycycline] | ≤2 | ≤2 | ≤2 | 4 | ≤2 µg/mL | ≤2 | ≤2 | ≤ 2 |  |  |
| CCN1CCN(c2cc3c(cc2F)c(=O)c(C(=O)O)cn3C2CC2)CC1 [Enrofloxacin] | >2 | >2 | >2 | > 2 | >2 µg/mL | >2 | >2 | > 2 |  |  |
| CC[C@H]1OC(=O)[C@H](C)[C@@H](O[C@H]2C[C@@](C)(OC)[C@@H](O)[C@H](C)O2)[C@H](C)[C@@H](O[C@@H]2O[C@H](C)C[C@H](N(C)C)[C@H]2O)[C@](C)(O)C[C@@H](C)C(=O)[C@H](C)[C@@H](O)[C@]1(C)O [Erythromycin] | >4 | >4 | >4 | > 4 |  |  |  | > 4 |  | >4 |
| CNC(C)C1CCC(N)C(OC2C(N)CC(N)C(OC3OCC(C)(O)C(NC)C3O)C2O)O1 (centres unmarked) [Gentamicin] | ≤1 | 2 | ≤1 | 2 | >8 µg/mL | >8 | >8 | > 8 |  |  |
| C[C@@H](O)[C@H]1C(=O)N2C(C(=O)O)=C(SCCN=CN)C[C@H]12 [Imipenem] | >8 | >8 | >8 | > 8 | ≤1 µg/mL | ≤1 | ≤1 | ≤ 1 |  |  |
| CN1CCN(c2c(F)cc3c(=O)c(C(=O)O)cn4c3c2OCN4C)CC1 [Marbofloxacin] | >2 | >2 | >2 | > 2 | >2 µg/mL | >2 | >2 | > 2 |  |  |
| Cc1onc(-c2ccccc2)c1C(=O)N[C@@H]1C(=O)N2[C@@H]1SC(C)(C)[C@@H]2C(=O)O [Oxacillin] | >4 | >4 | >4 | > 4 | >4 µg/mL | >4 | >4 | > 4 |  |  |
| CC1(C)S[C@@H]2[C@H](NC(=O)[C@H](C(=O)O)c3ccsc3)C(=O)N2[C@H]1C(=O)O [Ticarcillin] | >64 | >64 | >64 | > 64 |  | >64 | >64 | > 64 |  |  |
| Amoxicillin/clavulanic acid [Amoxicillin/clavulanic acid (2:1)] | >32 | >32 | >32 |  | 8/4 | 8 | 8 |  | >32 | 16 |
| Penicillin | >8 | >8 | >8 |  | >8 µg/mL | >8 | >8 |  | >8 | >8 |
| Ticarcillin/clavulanic acid [Ticarcillin/clavulanic acid (2:1)] | >64 | >64 | >64 |  |  | 16 | 32 |  | >64 | 64 |
